Measurements taken from ChEMBL document CHEMBL5236651, “Synthesis and antibacterial activity of novel 2‑fluoro ketolide antibiotics with 11,12‑quinoylalkyl side chains” (2023).
≈ marks a conversion by molar mass, not a printed value.

What was measured:
Format in all cases: functional
Klebsiella pneumoniae [1] = test: Antibacterial activity against ESBL negative Klebsiella pneumoniae 7 assessed as inhibition of bacterial growth by CLSI based micro broth double dilution method
[2] = test system: Staphylococcus epidermidis; test: Antibacterial activity against methicillin-sensitive Staphylococcus epidermidis 16-4 assessed as inhibition of bacterial growth by CLSI based micro broth double dilution method
Streptococcus pneumoniae [3] = test: Antibacterial activity against erythromycin-sensitive Streptococcus pneumoniae ATCC 49619 assessed as inhibition of bacterial growth by CLSI based micro broth double dilution method
Enterococcus faecalis [4] = test: Antibacterial activity against vancomycin-sensitive Enterococcus faecalis […] assessed as inhibition of bacterial growth by CLSI based micro broth double dilution method
Klebsiella pneumoniae [5] = test: Antibacterial activity against ESBL positive Klebsiella pneumoniae ATCC 700603 assessed as inhibition of bacterial growth by CLSI based micro broth double dilution method
Pseudomonas aeruginosa [6] = test: Antibacterial activity against Pseudomonas aeruginosa 16-11 assessed as inhibition of bacterial growth by CLSI based micro broth double dilution method
Klebsiella pneumoniae [7] = test: Antibacterial activity against ESBL negative Klebsiella pneumoniae 16-2 assessed as inhibition of bacterial growth by CLSI based micro broth double dilution method
Enterococcus faecalis [8] = test: Antibacterial activity against vancomycin-sensitive Enterococcus faecalis 16-6 assessed as inhibition of bacterial growth by CLSI based micro broth double dilution method
Streptococcus pneumoniae [9] = test: Antibacterial activity against erythromycin-resistant Streptococcus pneumoniae 12-3 assessed as inhibition of bacterial growth by CLSI based micro broth double dilution method
Staphylococcus aureus [10] = test: Antibacterial activity against methicillin-sensitive Staphylococcus aureus ATCC 29213 assessed as inhibition of bacterial growth by CLSI based micro broth double dilution method
Pseudomonas aeruginosa [11] = test: Antibacterial activity against Pseudomonas aeruginosa ATCC 27853 assessed as inhibition of bacterial growth by CLSI based micro broth double dilution method
Staphylococcus aureus [12] = test: Antibacterial activity against methicillin-sensitive Staphylococcus aureus 15 assessed as inhibition of bacterial growth by CLSI based micro broth double dilution method
Enterococcus faecalis [13] = test: Antibacterial activity against vancomycin-resistant Enterococcus faecalis ATCC 51575 assessed as inhibition of bacterial growth by CLSI based micro broth double dilution method
Streptococcus pyogenes [14] = test: Antibacterial activity against erythromycin-sensitive Streptococcus pyogenes ATCC 19615 assessed as inhibition of bacterial growth by CLSI based micro broth double dilution method
[15] = test system: Staphylococcus epidermidis; test: Antibacterial activity against methicillin-sensitive Staphylococcus epidermidis ATCC 12228 assessed as inhibition of bacterial growth by CLSI based micro broth double dilution method
Escherichia coli [16] = test: Antibacterial activity against ESBL-negative Escherichia coli ATCC 25922 assessed as inhibition of bacterial growth by CLSI based micro broth double dilution method
Escherichia coli [17] = test: Antibacterial activity against ESBL-positive Escherichia coli ATCC 35218 assessed as inhibition of bacterial growth by CLSI based micro broth double dilution method
Streptococcus pyogenes [18] = test: Antibacterial activity against erythromycin-resistant Streptococcus pyogenes 12-1 assessed as inhibition of bacterial growth by CLSI based micro broth double dilution method
Staphylococcus aureus [19] = test: Antibacterial activity against methicillin-sensitive Staphylococcus aureus 16-1 assessed as inhibition of bacterial growth by CLSI based micro broth double dilution method
Escherichia coli [20] = test: Antibacterial activity against Escherichia coli 16-7 assessed as inhibition of bacterial growth by CLSI based micro broth double dilution method
Pseudomonas aeruginosa [21] = test: Antibacterial activity against Pseudomonas aeruginosa PAO1 assessed as inhibition of bacterial growth by CLSI based micro broth double dilution method
Enterococcus faecalis [22] = test: Antibacterial activity against vancomycin-resistant Enterococcus faecalis ATCC 51299 assessed as inhibition of bacterial growth by CLSI based micro broth double dilution method

## CC[C@H]1OC(=O)[C@@](C)(F)C(=O)[C@H](C)[C@@H](O[C@@H]2O[C@H](C)C[C@H](N(C)C)[C@H]2O)[C@@](C)(OC)C[C@@H](C)C(=O)[C@H](C)[C@H]2N(CCCNc3cnc4ccccc4c3)C(=O)O[C@]12C
Klebsiella pneumoniae [1]
  MIC: > 32 mg/L
[2]
  MIC: 0.12 mg/L (≈ 0.147 µM)
Streptococcus pneumoniae [3]
  MIC: ≤ 0.016 mg/L
Enterococcus faecalis [4]
  MIC: 0.06 mg/L (≈ 0.0736 µM)
Klebsiella pneumoniae [5]
  MIC: > 32 mg/L
Pseudomonas aeruginosa [6]
  MIC: 32 mg/L (≈ 39.3 µM)
Klebsiella pneumoniae [7]
  MIC: > 32 mg/L
Enterococcus faecalis [8]
  MIC: > 32 mg/L
Streptococcus pneumoniae [9]
  MIC: ≤ 0.016 mg/L
Staphylococcus aureus [10]
  MIC: 0.12 mg/L (≈ 0.147 µM)
Pseudomonas aeruginosa [11]
  MIC: 32 mg/L (≈ 39.3 µM)
Staphylococcus aureus [12]
  MIC: 0.12 mg/L (≈ 0.147 µM)
Enterococcus faecalis [13]
  MIC: > 32 mg/L
Streptococcus pyogenes [14]
  MIC: 0.12 mg/L (≈ 0.147 µM)
[15]
  MIC: 0.12 mg/L (≈ 0.147 µM)
Escherichia coli [16]
  MIC: 16 mg/L (≈ 19.6 µM)
Escherichia coli [17]
  MIC: 32 mg/L (≈ 39.3 µM)
Streptococcus pyogenes [18]
  MIC: 32 mg/L (≈ 39.3 µM)
Staphylococcus aureus [19]
  MIC: 0.12 mg/L (≈ 0.147 µM)
Escherichia coli [20]
  MIC: 32 mg/L (≈ 39.3 µM)
Pseudomonas aeruginosa [21]
  MIC: 16 mg/L (≈ 19.6 µM)
Enterococcus faecalis [22]
  MIC: > 32 mg/L

## CC[C@H]1OC(=O)[C@@](C)(F)C(=O)[C@H](C)[C@@H](O[C@@H]2O[C@H](C)C[C@H](N(C)C)[C@H]2O)[C@@](C)(OC)C[C@@H](C)C(=O)[C@H](C)[C@H]2N(CCCN(C(=O)CCc3ccccc3)c3cnc4ccccc4c3)C(=O)O[C@]12C
Klebsiella pneumoniae [1]
  MIC: > 32 mg/L
[2]
  MIC: 4 mg/L (≈ 4.22 µM)
Streptococcus pneumoniae [3]
  MIC: ≤ 0.016 mg/L
Enterococcus faecalis [4]
  MIC: 0.5 mg/L (≈ 0.528 µM)
Klebsiella pneumoniae [5]
  MIC: > 32 mg/L
Pseudomonas aeruginosa [6]
  MIC: > 32 mg/L
Klebsiella pneumoniae [7]
  MIC: > 32 mg/L
Enterococcus faecalis [8]
  MIC: > 32 mg/L
Streptococcus pneumoniae [9]
  MIC: 0.06 mg/L (≈ 0.0633 µM)
Staphylococcus aureus [10]
  MIC: 1 mg/L (≈ 1.06 µM)
Pseudomonas aeruginosa [11]
  MIC: > 32 mg/L
Staphylococcus aureus [12]
  MIC: 1 mg/L (≈ 1.06 µM)
Enterococcus faecalis [13]
  MIC: > 32 mg/L
Streptococcus pyogenes [14]
  MIC: 0.5 mg/L (≈ 0.528 µM)
[15]
  MIC: 0.5 mg/L (≈ 0.528 µM)
Escherichia coli [16]
  MIC: > 32 mg/L
Escherichia coli [17]
  MIC: > 32 mg/L
Streptococcus pyogenes [18]
  MIC: 16 mg/L (≈ 16.9 µM)
Staphylococcus aureus [19]
  MIC: 1 mg/L (≈ 1.06 µM)
Escherichia coli [20]
  MIC: > 32 mg/L
Pseudomonas aeruginosa [21]
  MIC: > 32 mg/L
Enterococcus faecalis [22]
  MIC: > 32 mg/L

## CC[C@H]1OC(=O)[C@@](C)(F)C(=O)[C@H](C)[C@@H](O[C@@H]2O[C@H](C)C[C@H](N(C)C)[C@H]2O)[C@@](C)(OC)C[C@@H](C)C(=O)[C@H](C)[C@H]2N(CCCN(C(=O)/C=C/c3ccccc3)c3cnc4ccccc4c3)C(=O)O[C@]12C
Klebsiella pneumoniae [1]
  MIC: > 32 mg/L
[2]
  MIC: 2 mg/L (≈ 2.12 µM)
Streptococcus pneumoniae [3]
  MIC: ≤ 0.016 mg/L
Enterococcus faecalis [4]
  MIC: 0.5 mg/L (≈ 0.529 µM)
Klebsiella pneumoniae [5]
  MIC: 32 mg/L (≈ 33.9 µM)
Pseudomonas aeruginosa [6]
  MIC: > 32 mg/L
Klebsiella pneumoniae [7]
  MIC: > 32 mg/L
Enterococcus faecalis [8]
  MIC: > 32 mg/L
Streptococcus pneumoniae [9]
  MIC: 0.25 mg/L (≈ 0.265 µM)
Staphylococcus aureus [10]
  MIC: 1 mg/L (≈ 1.06 µM)
Pseudomonas aeruginosa [11]
  MIC: > 32 mg/L
Staphylococcus aureus [12]
  MIC: 1 mg/L (≈ 1.06 µM)
Enterococcus faecalis [13]
  MIC: > 32 mg/L
Streptococcus pyogenes [14]
  MIC: 0.25 mg/L (≈ 0.265 µM)
[15]
  MIC: 1 mg/L (≈ 1.06 µM)
Escherichia coli [16]
  MIC: > 32 mg/L
Escherichia coli [17]
  MIC: > 32 mg/L
Streptococcus pyogenes [18]
  MIC: 8 mg/L (≈ 8.46 µM)
Staphylococcus aureus [19]
  MIC: 1 mg/L (≈ 1.06 µM)
Escherichia coli [20]
  MIC: > 32 mg/L
Pseudomonas aeruginosa [21]
  MIC: > 32 mg/L
Enterococcus faecalis [22]
  MIC: > 32 mg/L

## CC[C@H]1OC(=O)[C@@](C)(F)C(=O)[C@H](C)[C@@H](O[C@@H]2O[C@H](C)C[C@H](N(C)C)[C@H]2O)[C@@](C)(OC)C[C@@H](C)C(=O)[C@H](C)[C@H]2N(CCCN(Cc3ccccc3)c3cnc4ccccc4c3)C(=O)O[C@]12C
Klebsiella pneumoniae [1]
  MIC: 8 mg/L (≈ 8.84 µM)
[2]
  MIC: 1 mg/L (≈ 1.1 µM)
Streptococcus pneumoniae [3]
  MIC: 0.03 mg/L (≈ 0.0331 µM)
Enterococcus faecalis [4]
  MIC: 0.5 mg/L (≈ 0.552 µM)
Klebsiella pneumoniae [5]
  MIC: 32 mg/L (≈ 35.4 µM)
Pseudomonas aeruginosa [6]
  MIC: > 32 mg/L
Klebsiella pneumoniae [7]
  MIC: > 32 mg/L
Enterococcus faecalis [8]
  MIC: > 32 mg/L
Streptococcus pneumoniae [9]
  MIC: 0.25 mg/L (≈ 0.276 µM)
Staphylococcus aureus [10]
  MIC: 1 mg/L (≈ 1.1 µM)
Pseudomonas aeruginosa [11]
  MIC: > 32 mg/L
Staphylococcus aureus [12]
  MIC: 0.5 mg/L (≈ 0.552 µM)
Enterococcus faecalis [13]
  MIC: > 32 mg/L
Streptococcus pyogenes [14]
  MIC: 0.12 mg/L (≈ 0.133 µM)
[15]
  MIC: 0.25 mg/L (≈ 0.276 µM)
Escherichia coli [16]
  MIC: > 32 mg/L
Escherichia coli [17]
  MIC: > 32 mg/L
Streptococcus pyogenes [18]
  MIC: 8 mg/L (≈ 8.84 µM)
Staphylococcus aureus [19]
  MIC: 0.5 mg/L (≈ 0.552 µM)
Escherichia coli [20]
  MIC: > 32 mg/L
Pseudomonas aeruginosa [21]
  MIC: > 32 mg/L
Enterococcus faecalis [22]
  MIC: > 32 mg/L

## CC[C@H]1OC(=O)[C@@](C)(F)C(=O)[C@H](C)[C@@H](O[C@@H]2O[C@H](C)C[C@H](N(C)C)[C@H]2O)[C@@](C)(OC)C[C@@H](C)C(=O)[C@H](C)[C@H]2N(CCCN(C(C)=O)c3cnc4ccccc4c3)C(=O)O[C@]12C
Klebsiella pneumoniae [1]
  MIC: > 32 mg/L
[2]
  MIC: 1 mg/L (≈ 1.17 µM)
Streptococcus pneumoniae [3]
  MIC: 0.06 mg/L (≈ 0.07 µM)
Enterococcus faecalis [4]
  MIC: 0.12 mg/L (≈ 0.14 µM)
Klebsiella pneumoniae [5]
  MIC: 32 mg/L (≈ 37.3 µM)
Pseudomonas aeruginosa [6]
  MIC: > 32 mg/L
Klebsiella pneumoniae [7]
  MIC: > 32 mg/L
Enterococcus faecalis [8]
  MIC: > 32 mg/L
Streptococcus pneumoniae [9]
  MIC: 0.25 mg/L (≈ 0.292 µM)
Staphylococcus aureus [10]
  MIC: 0.25 mg/L (≈ 0.292 µM)
Pseudomonas aeruginosa [11]
  MIC: > 32 mg/L
Staphylococcus aureus [12]
  MIC: 0.25 mg/L (≈ 0.292 µM)
Enterococcus faecalis [13]
  MIC: > 32 mg/L
Streptococcus pyogenes [14]
  MIC: 0.25 mg/L (≈ 0.292 µM)
[15]
  MIC: 0.25 mg/L (≈ 0.292 µM)
Escherichia coli [16]
  MIC: > 32 mg/L
Escherichia coli [17]
  MIC: > 32 mg/L
Streptococcus pyogenes [18]
  MIC: > 32 mg/L
Staphylococcus aureus [19]
  MIC: 0.25 mg/L (≈ 0.292 µM)
Escherichia coli [20]
  MIC: > 32 mg/L
Pseudomonas aeruginosa [21]
  MIC: > 32 mg/L
Enterococcus faecalis [22]
  MIC: > 32 mg/L
